target: Serine/threonine-protein kinase B-raf (Homo sapiens, UniProt P15056); assay: Inhibition of human recombinant his6-tagged B-Raf expressed in Sf9 cells assessed as inhibition of MEK1 phosphorylation after 60 mins
Sequence (P15056 whole entry): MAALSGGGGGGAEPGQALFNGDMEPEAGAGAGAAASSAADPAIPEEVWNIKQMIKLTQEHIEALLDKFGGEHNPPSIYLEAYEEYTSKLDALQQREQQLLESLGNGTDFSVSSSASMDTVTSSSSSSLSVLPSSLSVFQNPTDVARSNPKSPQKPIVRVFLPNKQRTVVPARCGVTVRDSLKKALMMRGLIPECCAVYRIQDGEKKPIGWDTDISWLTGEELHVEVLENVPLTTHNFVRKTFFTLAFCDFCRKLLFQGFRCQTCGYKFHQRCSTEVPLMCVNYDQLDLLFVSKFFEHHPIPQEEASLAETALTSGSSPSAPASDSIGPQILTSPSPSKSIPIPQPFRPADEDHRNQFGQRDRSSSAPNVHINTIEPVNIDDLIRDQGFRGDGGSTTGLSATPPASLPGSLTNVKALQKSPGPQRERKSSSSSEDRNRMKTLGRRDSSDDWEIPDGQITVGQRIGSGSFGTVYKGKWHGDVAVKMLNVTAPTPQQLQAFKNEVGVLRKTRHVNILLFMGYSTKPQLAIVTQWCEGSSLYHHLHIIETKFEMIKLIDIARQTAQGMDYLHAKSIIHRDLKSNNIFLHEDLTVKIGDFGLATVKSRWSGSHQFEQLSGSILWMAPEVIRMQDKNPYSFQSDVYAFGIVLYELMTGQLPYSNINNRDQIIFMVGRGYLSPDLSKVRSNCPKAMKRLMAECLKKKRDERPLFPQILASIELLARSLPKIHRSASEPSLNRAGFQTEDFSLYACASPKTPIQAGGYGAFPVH

IC50	SMILES
> 10000 nM	NC(=O)c1ccc2[nH]cc(-c3cccc(O)c3)c2c1
3470 nM	O=C1NC(=O)c2cc3c(-c4cccc(O)c4)c[nH]c3cc21
338 nM	O=C1NC(=O)c2cc(Nc3cccc(O)c3)c(Nc3cccc(O)c3)cc21
1680 nM	O=C1NC(=O)c2cc(Nc3cccc(O)c3)c(Nc3ccccc3)cc21
3770 nM	O=c1[nH][nH]c(=O)c2cc(Nc3cccc(O)c3)c(Nc3ccccc3)cc12
290 nM	O=c1[nH][nH]c(=O)c2cc(Nc3cccc(O)c3)c(Nc3cccc(O)c3)cc12
117 nM	O=C(Nc1cccc(Nc2cc3c(cc2Cl)C(=O)NC3=O)c1)c1cccc(Cl)c1
35 nM	O=C(Nc1cccc(Nc2cc3c(cc2Cl)C(=O)NC3=O)c1)c1cccc(Br)c1
8 nM	O=C(Nc1cccc(Nc2cc3c(cc2Cl)C(=O)NC3=O)c1)c1cccc(I)c1
10 nM	O=C(Nc1cccc(Nc2cc3c(cc2Cl)C(=O)NC3=O)c1)c1cccc(C(F)(F)F)c1
6 nM	O=C(Nc1cccc(Nc2cc3c(cc2Cl)C(=O)NC3=O)c1)c1cccc(OC(F)(F)F)c1
297 nM	N#Cc1cccc(C(=O)Nc2cccc(Nc3cc4c(cc3Cl)C(=O)NC4=O)c2)c1
349 nM	Cn1nc(C(C)(C)C)cc1C(=O)Nc1cccc(Nc2cc3c(cc2Cl)C(=O)NC3=O)c1
35 nM	O=C(Nc1cccc(Nc2cc3c(=O)[nH][nH]c(=O)c3cc2Cl)c1)c1cccc(Cl)c1
19 nM	O=C(Nc1cccc(Nc2cc3c(=O)[nH][nH]c(=O)c3cc2Cl)c1)c1cccc(Br)c1
8 nM	O=C(Nc1cccc(Nc2cc3c(=O)[nH][nH]c(=O)c3cc2Cl)c1)c1cccc(I)c1
17 nM	O=C(Nc1cccc(Nc2cc3c(=O)[nH][nH]c(=O)c3cc2Cl)c1)c1cccc(C(F)(F)F)c1
18 nM	O=C(Nc1cccc(Nc2cc3c(=O)[nH][nH]c(=O)c3cc2Cl)c1)c1cccc(OC(F)(F)F)c1
296 nM	N#Cc1cccc(C(=O)Nc2cccc(Nc3cc4c(=O)[nH][nH]c(=O)c4cc3Cl)c2)c1
293 nM	Cn1nc(C(C)(C)C)cc1C(=O)Nc1cccc(Nc2cc3c(=O)[nH][nH]c(=O)c3cc2Cl)c1

— ChEMBL document CHEMBL1921694, “Structure-based design of isoindoline-1,3-diones and 2,3-dihydrophthalazine-1,4-diones as novel B-Raf inhibitors” (Bioorg Med Chem Lett, 2011)
